For assay [1], the target named is SpCas9 (Streptococcus pyogenes serotype M1, UniProt Q99ZW2). As to the kind of experiment: Cas9 nuclease activity in EGFP disruption assay (U2OS.eGFP.PEST cells). It counts as cell-based. On the set-up: host or cells: U2OS.eGFP-PEST. The settings on record: 10, 15, 20 μM, 24 h. How it is done:
(§1) Cas9 Nuclease activity in EGFP disruption assay. Approximately 200,000 U2OS.eGFP-PEST cells were nucleofected with 400 ng of SpCas9 (Addgene Plasmid #43861) and 40 ng of sgRNA (pFYF1320 EGFP Site #1, Addgene Plasmid #47511) expressing plasmids along with a Td-tomato-encoding plasmid using the SE Cell Line 4D-Nucleofector™ X Kit (Lonza) according to the manufacturer's protocol. Approximately 20,000 transfected cells/well in 3 replicates were plated in a 96-well plate (Corning® 3904). Cells were allowed to grow in the indicated amount of compound or DMSO for 24 h post transfection. Cells were then fixed using 4% paraformaldehyde and imaged with the HCS NuclearMask™ Blue Stain (Life Technologies) as the nuclear counter-staining agent. Imaging was performed with an IXM 137204 ImageXpress Automated High Content Microscope (Molecular Devices) at 10× magnification under three excitation channels (blue, green and red) with 9 acquiring sites per well. Images were analyzed in the MetaXpress software and data were plotted using GraphPad Prism 6. The Z′-value was calculated following the formula: […]
Cas9 Nuclease activity in EGFP disruption assay. In some embodiments, a quantitative human cell-based reporter assay that enables rapid quantitation of targeted nuclease activities is used to characterize off-target cleavage of CRISPR protein-based RNA guided endonucleases. In this assay, the activities of nucleases targeted to a single integrated EGFP reporter gene can be quantified by assessing loss of fluorescence signal in human U2OS.EGFP cells caused by inactivating frameshift insertion/deletion (indel) mutations introduced by error prone non-homologous end-joining (NHEJ) repair of nuclease-induced double-stranded breaks (DSBs).
as §1, with “Approximately” for “Cas9 Nuclease activity in EGFP disruption assay. Approximately”

For assay [2], the target named is T1, SpCas9:gRNA complex (Streptococcus pyogenes serotype M1, UniProt Q99ZW2).
T1 construct: His6 (N, cleaved yes); made in house; host or cells: E. coli BL21 Star (DE3)
As to the kind of experiment: Bio-Layer Interferometry (BLI) of biotinylated compound with SpCas9:gRNA complex. It counts as binding. On the procedure: Compound-Cas9 interaction in BLI. The experiments were performed in a 96-well format with 180 μL reaction volume using biotinylated compound BRD7087-Biotin and streptavidin sensors. 1 μM of the biotinylated compound was loaded onto the sensors for 180 s in 20 mM Tris buffer of pH 7.4, 100 mM KCl, 5 mM MgCl2, 1 mM DTT, 0.01% Tween®. The compound loaded sensors were then allowed to associate with the different concentration of SpCas9:gRNA complex (1-0.15 μM) for 300 s followed by dissociation in the reaction buffer. Reference sensor was loaded with compound and allowed to associate and dissociate in the reaction buffer alone. The response curves were fitted with a 2:1 stoichiometric model and a global fit steady-state analysis were performed using manufacturer inbuilt protocol. The experiment was performed in three replicates.
The competitive experiments were performed using Biotin-linker fragment. In this experiment, streptavidin sensors were pre-incubated with 10 μM of Biotin-linker before dipping into a solution of either 1 μM BRD7087-Biotin or reaction buffer alone. Sensors were then allowed to associate with different concentration of SpCas9:gRNA complex or buffer alone.
Compound-Cas9 interaction in BLL The experiments were performed in a 96-well format with 180 μL reaction volume using biotinylated compound BRD7087-Biotin and streptavidin sensors. […]
Background: BLI is a label-free optical method that tracks binding on a fibre tip over time.

Sequence of SpCas9 (Q99ZW2 whole entry): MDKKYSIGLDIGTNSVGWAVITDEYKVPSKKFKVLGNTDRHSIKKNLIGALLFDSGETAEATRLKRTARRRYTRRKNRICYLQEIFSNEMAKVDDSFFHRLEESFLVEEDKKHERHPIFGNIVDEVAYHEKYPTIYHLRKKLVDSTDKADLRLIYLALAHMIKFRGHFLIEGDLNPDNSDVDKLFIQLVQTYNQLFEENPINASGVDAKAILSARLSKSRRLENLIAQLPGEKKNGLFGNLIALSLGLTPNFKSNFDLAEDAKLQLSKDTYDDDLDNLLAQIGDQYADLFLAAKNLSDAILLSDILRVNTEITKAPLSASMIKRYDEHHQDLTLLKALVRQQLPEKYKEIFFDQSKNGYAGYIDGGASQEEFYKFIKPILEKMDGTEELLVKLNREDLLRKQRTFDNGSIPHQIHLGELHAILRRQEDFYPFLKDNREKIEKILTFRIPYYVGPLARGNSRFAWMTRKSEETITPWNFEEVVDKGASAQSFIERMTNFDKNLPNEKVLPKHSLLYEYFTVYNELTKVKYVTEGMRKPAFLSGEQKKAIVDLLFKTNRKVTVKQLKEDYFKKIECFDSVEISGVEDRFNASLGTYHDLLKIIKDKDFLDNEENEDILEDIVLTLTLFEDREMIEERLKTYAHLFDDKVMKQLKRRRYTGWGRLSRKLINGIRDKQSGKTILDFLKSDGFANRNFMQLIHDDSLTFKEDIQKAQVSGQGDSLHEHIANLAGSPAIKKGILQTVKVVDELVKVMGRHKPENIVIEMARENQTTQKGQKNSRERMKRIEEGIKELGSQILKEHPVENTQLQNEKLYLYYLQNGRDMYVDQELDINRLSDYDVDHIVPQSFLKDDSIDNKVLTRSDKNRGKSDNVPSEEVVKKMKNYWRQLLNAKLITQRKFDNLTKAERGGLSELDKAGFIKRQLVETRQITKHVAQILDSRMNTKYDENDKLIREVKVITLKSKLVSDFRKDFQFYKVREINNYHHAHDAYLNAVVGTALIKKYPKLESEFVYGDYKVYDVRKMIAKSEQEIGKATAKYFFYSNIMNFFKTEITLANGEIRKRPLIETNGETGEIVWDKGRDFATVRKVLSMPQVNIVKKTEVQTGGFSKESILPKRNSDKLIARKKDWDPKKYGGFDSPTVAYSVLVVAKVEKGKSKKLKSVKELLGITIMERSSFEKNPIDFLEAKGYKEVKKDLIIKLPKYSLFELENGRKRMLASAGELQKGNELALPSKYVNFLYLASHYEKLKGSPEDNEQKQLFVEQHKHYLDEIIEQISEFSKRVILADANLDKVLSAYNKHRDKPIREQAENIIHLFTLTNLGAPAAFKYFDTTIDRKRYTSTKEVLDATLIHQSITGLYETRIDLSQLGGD
T1 sequence (Q99ZW2 whole entry, one chain of several): as the sequence (Q99ZW2 whole entry) above

Take `OC[C@@H]1Nc2ccc(-c3cccc(F)c3)cc2[C@H]2[C@@H]1CCN2Cc1ccncc1` [BRD2161, ((3aR,4R,9bR)-8-(3-Fluorophenyl)-1-(pyridin-4-ylmethyl)-2,3,3a,4,5,9b-hexahydro-1H-pyrrolo[3,2-c]quinolin-4-yl)methanol]: in assay [1], the “potency of stereoisomers in EGFP-disruption assay compared with the parent (3aR,4S,9bR) compound” value is reported as “less potent”.

For the molecule `OC[C@H]1Nc2ccc(-c3cccc(F)c3)cc2[C@@H]2[C@H]1CCN2Cc1ccncc1` [BRD0750, ((3aS,4S,9bS)-8-(3-Fluorophenyl)-1-(pyridin-4-ylmethyl)-2,3,3a,4,5,9b-hexahydro-1H-pyrrolo[3,2-c]quinolin-4-yl)methanol], the “potency of stereoisomers in EGFP-disruption assay compared with the parent (3aR,4S,9bR) compound” value in assay [1] is given as “less potent”.

Consider `O=C(CCCC[C@@H]1SC[C@@H]2NC(=O)N[C@@H]21)NCCOCCOCCOCCC(=O)Nc1cccc(-c2ccc3c(c2)[C@H]2[C@H](CCN2Cc2ccncc2)[C@@H](CO)N3)c1` [biotin-conjugate of BRD7087, N-(2-(2-(2-(3-((3-((3aR,4S,9bR)-4-(Hydroxymethyl)-1-(pyridin-4-ylmethyl)-2,3,3a,4,5,9b-hexahydro-1H-pyrrolo[3,2-c]quinolin-8-yl)phenyl)amino)-3-oxopropoxy)ethoxy)ethoxy)ethyl)-5-((3aS,4S,6aR)-2-oxohexahydro-1H-thieno[3,4-d]imidazol-4-yl)pentanamide], for which the Kd in assay [2] (1 μM BRD7087-Biotin on streptavidin sensors, SpCas9:gRNA 1-0.15 μM, read-out: dissociation constant (2:1 compound to Cas9 binding isotherm)) is around 160 nM. In assay [2] (excess (10×) of biotin to compound loading), the “BLI response signal in competitive experiment” value is reported as “no substantial response signal”.

Turning to `OC[C@@H]1Nc2ccc(-c3cccc(F)c3)cc2[C@@H]2[C@H]1CCN2Cc1ccncc1` [BRD5039, ((3aS,4R,9bS)-8-(3-Fluorophenyl)-1-(pyridin-4-ylmethyl)-2,3,3a,4,5,9b-hexahydro-1H-pyrrolo[3,2-c]quinolin-4-yl)methanol], in assay [1], the “potency of stereoisomers in EGFP-disruption assay compared with the parent (3aR,4S,9bR) compound” value is given as “equipotent as BRD7087”.

The values are drawn from US11760984B2, “CRISPR protein inhibitors” (THE BROAD INSTITUTE, INC., priority 2017, dated 2023).
